Test results published in publication PMC8997913, “Lichen Secondary Metabolites Inhibit the Wnt/β-Catenin Pathway in Glioblastoma Cells and Improve the Anticancer Effects of Temozolomide” (Cells, 2022).

Experiments:
[1] = tested on: Wnt/β-catenin pathway target genes in U-138 MG cells; assay: qPCR of β-catenin and Wnt target genes, U-138 MG; format: cell-based, human; details: 48 h; for expression of the Wnt target genes: co-treatment with TMZ 100 µM
Experimental: (§1) Based on the MTT test, the lichen secondary metabolite concentrations allowing the survival of more than 70% of cells were chosen for the subsequent experiments. The compounds were added as follows: A-172 cells—atranorin 25 µM, caperatic acid 50 µM, physodic acid 25 µM, squamatic acid 25 µM, salazinic acid 50 µM, and lecanoric acid 100 µM; T98G cells—atranorin 50 µM, caperatic acid 100 µM, physodic acid 25 µM, squamatic acid 50 µM, salazinic acid 100 µM, and lecanoric acid 100 µM; U-138 MG cells—atranorin 25 µM, caperatic acid 50 µM, physodic acid 25 µM, squamatic acid 50 µM, salazinic acid 50 µM, and lecanoric acid 100 µM. As far as the TMZ treatment is concerned, it was added in the concentrations depending on the MGMT expression and methylation status, i.e., TMZ 30 µM was added to the A-172 cell line, and TMZ 100 µM was added to both the T98G and U-138 MG cell lines. In the case of the 2D culture, the cells were treated with the compounds 24 h after seeding, whereas, in regard to 3D culture, 5 days were needed to form spheroids. All subsequent analyses were performed 48 h after treatment.
(§2) The Universal RNA Purification Kit (EURx, Gdańsk, Poland) was used for total RNA isolation from the A-172, T98G, and U-138 MG cells, and the Revert-Aid First Strand cDNA Synthesis kit (Fermentas, Burlington, ON, Canada) was chosen for cDNA synthesis. Quantitative real-time PCR (qPCR) was performed using Hot FIREPol EvaGreen qPCR Mix Plus (Solis Biodyne, Tartu, Estonia) and LightCycler 96 (Roche Diagnostics GmbH, Mannheim, Germany). Primer sequences were previously published and their synthesis was performed at the Institute of Biochemistry and Biophysics, Warsaw, Poland. The protocol started with 15 min enzyme activation at 95 °C, followed by 40 cycles of 95 °C for 15 s; appropriate annealing temperature for 20 s; 72 °C for 40 s and the final elongation at 72 °C for 5 min. Melting curve analysis was used to confirm the generation of a single amplification product. TATA box-binding protein (TBP), a component of the DNA-binding protein complex TFIID, served as the endogenous RNA control. The results were expressed as N-fold differences in the gene expression relative to the TBP gene. The ΔΔCt method was used for fold-change calculation. All samples were analyzed in triplicate, and the reaction was repeated at least twice.

[2] = tested on: HCT-116 cells; set-up: method as in PMID 35190352; details: atranorin at 30 µg/mL, ref [30]; cited from earlier work
[3] = tested on: MDA-MB-231 breast cancer cells; set-up: method as in PMID 32096436; details: MDA-MB-231, ref [31]; read-out: IC50 concentration; cited from earlier work
[4] = tested on: Wnt/β-catenin pathway target genes in T98G cells; assay: qPCR of β-catenin and Wnt target genes, T98G; format: cell-based, human; details: 48 h
Experimental: as §1, §2

[5] = tested on: HCT-116 cells; set-up: method as in PMID 35190352; details: 30 µg/mL, ref [30]; cited from earlier work
[6] = tested on: HCT-116 cells; set-up: method as in PMID 35190352; details: HCT-116, ref [30]; cited from earlier work
[7] = tested on: Wnt/β-catenin pathway target genes in A-172 cells; assay: qPCR of β-catenin and Wnt target genes, A-172; format: cell-based, human; details: A-172, 48 h
Experimental: as §1, §2

[8] = tested on: T98G cells; assay: Cell cycle distribution, flow cytometry, T98G; format: cell-based, human; details: 48 h
Experimental: as §1
The Muse Cell Cycle Kit and the Muse Cell Cycle Software (both Merck, Darmstadt, Germany) were used to quantitatively measure the percentage of cells in the G0/G1, S, and G2/M phases of the cell cycle. The assay utilizes the nuclear DNA intercalating stain propidium iodide and RNAse A in a formulation. Propiodium iodide discriminates cells at different stages of the cell cycle, based on differential DNA content, while the presence of RNAse increases the specificity of DNA staining. Briefly, the cells were seeded on 6-well plates (100,000 cells per well) and incubated for 24 h. Afterward, the lichen secondary metabolites were added to the concentrations chosen based on the MTT test, allowing >70% of cell survival. 0.5% DMSO and 100 nM topotecan were used as negative and positive controls, respectively. The analysis was performed after a 48 h incubation with lichen secondary metabolites and started with washing the cells with PBS, followed by cell fixation with ice-cold ethanol and overnight incubation at −20 °C. Following steps included cell re-washing with PBS, then a 30 min incubation in the dark with propiodium iodide-RNAse A formulation, and a final analysis on Muse™ Cell Analyzer (Merck, Darmstadt, Germany).

[9] = tested on: MCF-7 breast cancer cells; set-up: method as in PMID 32096436; details: MCF-7, ref [31]; read-out: IC50 concentration; cited from earlier work
[10] = tested on: NIH3T3 cells; set-up: method as in PMID 35190352; details: NIH3T3, ref [30]; cited from earlier work
[11] = tested on: HeLa cells; set-up: method as in PMID 35190352; details: ref [30]; cited from earlier work
[12] = tested on: A-172 cells; details: taken from the literature, ref [5]; read-out: IC50 [uM] ± SEM A-172; cited from earlier work
[13] = tested on: T98G cells; details: taken from the literature, ref [5]; read-out: IC50 [uM] ± SEM T98G; cited from earlier work
[14] = tested on: T98G cells; assay: ROS (superoxide) generation, flow cytometry, T98G; format: cell-based, human; details: 48 h
Experimental: Based on the MTT test, the lichen secondary metabolite concentrations allowing the survival of more than 70% of cells were chosen for the subsequent experiments. The compounds were added as follows: A-172 cells—atranorin 25 µM, caperatic acid 50 µM, physodic acid 25 µM, squamatic acid 25 µM, salazinic acid 50 µM, and lecanoric acid 100 µM; T98G cells—atranorin 50 µM, caperatic acid 100 µM, physodic acid 25 µM, squamatic acid 50 µM, salazinic acid 100 µM, and lecanoric acid 100 µM; U-138 MG cells—atranorin 25 µM, caperatic acid 50 µM, physodic acid 25 µM, squamatic acid 50 µM, salazinic acid 50 µM, and lecanoric acid 100 µM. […]
The intracellular detection of superoxide radicals was detected by flow cytometric analysis after the staining with dihydroethidium, using The Muse® Oxidative Stress Kit (Merck, Darmstadt, Germany). Briefly, 100,000 cells per well were seeded on 6-well plates and after a 24 h incubation they were treated with the analyzed lichen secondary metabolites in the concentrations allowing >70% of cell survival; cells treated with DMSO were used as the negative control. […] The obtained data were evaluated using Muse® Analysis Software ver. […]

[15] = mRNA vs DMSO control, single agent
[16] = mRNA vs DMSO control, single agent, (TMZ 30 µM)
[17] = mRNA vs DMSO control, single agent, TMZ 100 µM

Row | Structure (SMILES) | Axin2 expression [1, 15] | apoptosis induction [2] | c-MYC expression [4, 15] | viability of HCT-116 cells [5] | cell cycle distribution [6] | Axin2 expression [7, 16] | number of cells in G0/G1 phases vs control [8] | number of cells in S phase vs control [8] | expression of the Wnt target genes [1] | NEDD9 expression [4, 15] | Axin2 expression ([4]; co-treatment with TMZ 100 µM) | CCND1 expression ([4]; co-treatment with TMZ 100 µM) | c-MYC expression ([4]; co-treatment with TMZ 100 µM) | β-catenin (CTNNB1) expression ([4]; co-treatment with TMZ 100 µM) | further results
1 | COC(=O)c1c(C)cc(OC(=O)c2c(C)cc(O)c(C=O)c2O)c(C)c1O [Atranorin] | downregulated | significantly induced apoptosis | trend towards downregulation, but with no statistical significance | significantly reduced | no significant effect | downregulated | slightly increased | reduced | – | – | – | – | – | – | IC50 [3]: 5.36 ± 0.85 µM; IC50 [9]: 7.55 ± 1.2 µM
2 | CCCCCCCCCCCCCCC(C(=O)O)C(O)(CC(=O)OC)C(=O)O (stereo not drawn) [Caperatic acid] | downregulated | – | – | – | – | downregulated | diminished | – | huge downregulatory effect | downregulated | – | – | – | – | NEDD9 expression [1, 17]: downregulated; NEDD9 expression [7, 15]: downregulated
3 | Cc1cc(OC(=O)c2c(C)cc(O)cc2O)cc(O)c1C(=O)O [Lecanoric acid] | – | did not induce apoptosis | – | significantly reduced | cell cycle arrest in the G2 phase | – | – | – | – | – | downregulated | downregulated | downregulated | downregulated | cell cycle distribution [10]: cell cycle arrest in the G2 phase; cell cycle distribution [11]: cell cycle arrest in the G2 phase; c-MYC expression [7, 16]: upregulated
4 | Cc1cc(O)c(C=O)c2c1C(=O)Oc1c(CO)c(O)c3c(c1O2)C(O)OC3=O (stereo not drawn) [Salazinic acid] | – | – | upregulated | – | – | – | slightly increased | reduced | huge downregulatory effect | – | trend toward downregulation | – | – | – | BIRC5 expression [1, 15]: diminished; CCND1 expression [1, 15]: downregulated CCND1 expression by around half; number of the six analyzed genes downregulated ([4]; co-treatment with TMZ 100 µM): five out of six; CCND1 expression [4, 15]: significantly upregulated; BIRC5 expression [4, 17]: downregulated; IC50 [12]: > 100 µM; percentage of cells in G2/M phases vs control [8]: diminished; IC50 [13]: > 100 µM
5 | COc1cc(C)c(C(=O)Oc2cc(C)c(C(=O)O)c(O)c2C)c(O)c1C(=O)O [Squamatic acid] | downregulated | – | trend towards downregulation, but with no statistical significance | – | – | downregulated | – | – | – | downregulation | – | downregulated | downregulated | downregulated | NEDD9 expression ([4]; co-treatment with TMZ 100 µM): downregulated; oxidative stress (superoxide) induction [14]: induce oxidative stress; CCND1 expression ([7]; co-treatment with TMZ 30 µM): upregulation; BIRC5 expression [7, 15]: diminished
